Data taken from ChEMBL document CHEMBL1149176, “(2R)-2-ethylchromane-2-carboxylic acids: discovery of novel PPARalpha/gamma dual agonists as antihyperglycemic and hypolipidemic agents” (J Med Chem, 2004).

Key:
[1] = target: T1, Peroxisome proliferator-activated receptor gamma (Homo sapiens, UniProt P37231); experiment: In vitro binding affinity for human peroxisome proliferator activated receptor gamma using scintillation proximity assay (SPA)
T1 sequence (P37231 whole entry): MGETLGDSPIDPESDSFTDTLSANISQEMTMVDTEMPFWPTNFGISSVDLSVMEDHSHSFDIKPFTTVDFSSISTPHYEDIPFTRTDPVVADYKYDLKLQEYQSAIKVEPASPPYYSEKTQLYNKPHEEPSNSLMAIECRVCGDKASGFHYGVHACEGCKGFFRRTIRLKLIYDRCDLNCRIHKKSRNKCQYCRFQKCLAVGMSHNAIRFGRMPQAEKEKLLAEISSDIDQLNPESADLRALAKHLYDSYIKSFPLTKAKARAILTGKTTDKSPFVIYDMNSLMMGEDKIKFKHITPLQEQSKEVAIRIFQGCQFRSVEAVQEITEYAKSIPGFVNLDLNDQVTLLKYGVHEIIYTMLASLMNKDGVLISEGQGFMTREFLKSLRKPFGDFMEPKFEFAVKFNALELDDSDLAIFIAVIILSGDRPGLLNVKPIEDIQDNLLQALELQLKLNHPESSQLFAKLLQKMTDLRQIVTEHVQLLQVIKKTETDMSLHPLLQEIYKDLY

[2] = target: T1, Peroxisome proliferator-activated receptor gamma
Description: In vitro potency of PPAR gene activation against human PPAR gamma receptor using chimeric Gal4-hPPAR transactivation assay (TA)

[3] = target: T2, Peroxisome proliferator-activated receptor alpha (Homo sapiens, UniProt Q07869); experiment: In vitro potency of PPAR gene activation against human Peroxisome proliferator activated receptor alpha using chimeric Gal4-hPPAR transactivation assay (TA)
T2 sequence (Q07869 whole entry): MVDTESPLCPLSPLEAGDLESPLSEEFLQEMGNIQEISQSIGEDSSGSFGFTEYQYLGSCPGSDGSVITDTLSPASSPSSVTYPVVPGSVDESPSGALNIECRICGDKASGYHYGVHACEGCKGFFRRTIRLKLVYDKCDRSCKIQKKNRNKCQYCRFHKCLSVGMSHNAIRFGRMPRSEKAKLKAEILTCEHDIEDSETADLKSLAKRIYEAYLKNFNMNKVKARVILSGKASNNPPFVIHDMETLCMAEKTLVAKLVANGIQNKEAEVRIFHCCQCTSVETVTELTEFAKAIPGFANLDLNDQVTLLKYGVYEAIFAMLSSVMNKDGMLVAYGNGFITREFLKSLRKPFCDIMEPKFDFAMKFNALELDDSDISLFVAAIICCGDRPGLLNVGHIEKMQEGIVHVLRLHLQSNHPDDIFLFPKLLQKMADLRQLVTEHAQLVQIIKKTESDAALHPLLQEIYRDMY

[4] = target: T3, Peroxisome proliferator-activated receptor delta (Homo sapiens, UniProt Q03181)
T3 sequence (Q03181 whole entry): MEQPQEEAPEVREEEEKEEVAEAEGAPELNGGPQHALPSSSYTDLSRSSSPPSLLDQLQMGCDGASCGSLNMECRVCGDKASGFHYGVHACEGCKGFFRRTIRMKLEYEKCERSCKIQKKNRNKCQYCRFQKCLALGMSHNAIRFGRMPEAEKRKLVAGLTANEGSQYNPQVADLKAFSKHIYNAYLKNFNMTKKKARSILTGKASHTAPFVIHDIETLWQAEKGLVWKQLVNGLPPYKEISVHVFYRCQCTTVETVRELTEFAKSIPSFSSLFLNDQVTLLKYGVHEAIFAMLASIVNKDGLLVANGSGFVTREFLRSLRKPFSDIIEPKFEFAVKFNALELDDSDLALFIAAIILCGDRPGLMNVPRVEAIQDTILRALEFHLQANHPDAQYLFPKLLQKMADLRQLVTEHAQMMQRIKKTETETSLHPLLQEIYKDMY

[5] = target: T2, Peroxisome proliferator-activated receptor alpha
Description: In vitro binding affinity for human peroxisome proliferator activated receptor alpha using scintillation proximity assay (SPA)

[6] = target: T1, Peroxisome proliferator-activated receptor gamma; experiment: In vitro transcriptional activation by human PPAR gamma Gal4 chimera
[7] = target: T1, Peroxisome proliferator-activated receptor gamma; remark: listed apart in the source
Description: In vitro binding affinity for human PPAR gamma receptor using scintillation proximity assay (SPA)

[8] = target: T2, Peroxisome proliferator-activated receptor alpha; experiment: In vitro transcriptional activation by human PPAR alpha Gal4 chimera; Not active

Structure (SMILES) | IC50 [1] [nM] | EC50 [2] [nM] | EC50 [3] [nM] | IC50 [4] [nM] | IC50 [5] [nM] | EC50 [6] [nM] | IC50 [7] [nM] | EC50 [8]
CCCc1cc(Oc2ccccc2)ccc1OCCCOc1ccc2c(c1)OC(C(=O)O)CC2 (stereo not drawn) | 980 | 7300 | 3000 | 170 | 1500 |  |  | 
CCC1(C(=O)O)CCc2ccc(OCCCOc3ccc(Oc4ccccc4)cc3F)cc2O1 (stereo not drawn) | 4700 |  | 50 | > 50000 | 370 | 1000 |  | 
CCCc1cc(Oc2ccccc2)ccc1OCCCOc1ccc2c(c1)OC(C)(C(=O)O)CC2 (stereo not drawn) | 750 | 1000 | 100 | > 50000 | 1900 |  |  | 
CCCc1cc(Oc2ccccc2)ccc1OCCCOc1ccc2c(c1)OC(CCC)(C(=O)O)CC2 (stereo not drawn) | 370 | 830 | 120 | > 50000 | 2100 |  |  | 
CCC1(C(=O)O)CCc2ccc(OCCCOc3ccc(Oc4ccccc4)cc3Cl)cc2O1 (stereo not drawn) |  | 160 | 30 | > 15000 | 120 |  | 690 | 
CCCc1cc(Oc2ccccc2)ccc1OCCCOc1ccc2c(c1)OC(CC(C)C)(C(=O)O)CC2 (stereo not drawn) | 1200 |  |  | 5000 | 3000 |  |  | 
CCC1(C(=O)O)CCc2ccc(OCCCOc3ccc(Oc4ccccc4)cc3)cc2O1 (stereo not drawn) | > 15000 |  | 220 | > 50000 | 1700 | 10000 |  | 
CCCc1cc(Oc2ccccc2)ccc1OCCCCOc1ccc2c(c1)OC(C(=O)O)CC2 (stereo not drawn) | 1800 | 1600 | 6300 | > 15000 | > 15000 |  |  | 
CC1(C(=O)O)CCc2ccc(OCCCOc3ccc(Oc4ccccc4)cc3Cl)cc2O1 (stereo not drawn) | 1400 |  | 80 | > 15000 | 120 | 360 |  | 
CCCc1cc(Oc2ccccc2)ccc1OCCCCOc1ccc2c(c1)CCC(C)(C(=O)O)O2 (stereo not drawn) | 2300 | 1200 |  | > 50000 | 2000 |  |  | Not Active
CCCc1cc(Oc2ccccc2)ccc1OCCCCOc1ccc2c(c1)CCC(C(=O)O)O2 (stereo not drawn) | 3000 | 2500 |  | > 50000 | 5800 |  |  | Not Active
